The source of these data is article PMC5669199, “CM352 Reduces Brain Damage and Improves Functional Recovery in a Rat Model of Intracerebral Hemorrhage” (Journal of the American Heart Association: Cardiovascular …, 2017).

Data set [1] deals with tissue‐type plasminogen activator–induced fibrinolysis in rat whole blood. Nature of the data set: Whole blood clot formation and lysis assay (ROTEM thromboelastometry), rat blood. The format is biochemical. The method, then: (§1) Citrated blood samples from (n=4) rats (Sprague Dawley) and (n=16) mice ([…], Harlan Iberica) were assayed with a ROTEM analyzer (Pentapharm GmbH, Munich, Germany) as previously described.20 In a prewarmed cuvette and holder we pipetted 1 μL tissue-type plasminogen activator (150 000 U/mL), 20 μL Start-tem reagent (Pentapharm GmbH), 20 μL In-tem reagent (Pentapharm GmbH), 3 μL DMSO (SIGMA) or test compounds in DMSO, and 300 μL prewarmed citrated blood. The cup holder containing the sample mixture was placed immediately on the appropriate channel. Measurements were recorded for 60 minutes to allow clot formation and lysis, and results are expressed as effective concentration to delay lysis time by 50%.

The test system of data set [2] is tissue‐type plasminogen activator–induced fibrinolysis in mouse whole blood. Put plainly: Whole blood clot formation and lysis assay (ROTEM thromboelastometry), mouse blood. The format is biochemical. The conditions noted are these: tPA‐induced fibrinolysis, read-out: effective concentration to delay lysis time by 50%. The method, then:
as §1

Another data set has as its target T1, MMP‐2 (Homo sapiens, UniProt P08253).
T1 construct: GenScript (contract testing)
T1 sequence (P08253 110-660): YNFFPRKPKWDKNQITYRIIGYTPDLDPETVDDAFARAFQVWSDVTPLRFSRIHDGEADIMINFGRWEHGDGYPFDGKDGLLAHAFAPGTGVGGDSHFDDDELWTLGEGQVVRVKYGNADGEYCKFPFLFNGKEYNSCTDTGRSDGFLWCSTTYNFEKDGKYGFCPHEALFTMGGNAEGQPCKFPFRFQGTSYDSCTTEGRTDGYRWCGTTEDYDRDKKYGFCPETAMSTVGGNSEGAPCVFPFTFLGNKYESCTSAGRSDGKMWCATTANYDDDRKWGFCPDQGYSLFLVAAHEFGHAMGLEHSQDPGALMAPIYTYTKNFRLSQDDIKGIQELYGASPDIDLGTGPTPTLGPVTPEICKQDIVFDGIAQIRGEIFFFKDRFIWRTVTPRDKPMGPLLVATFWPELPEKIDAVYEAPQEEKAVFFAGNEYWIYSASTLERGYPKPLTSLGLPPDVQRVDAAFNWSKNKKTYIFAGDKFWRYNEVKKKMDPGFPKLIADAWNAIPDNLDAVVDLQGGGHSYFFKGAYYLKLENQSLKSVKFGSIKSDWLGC
Nature of the data set: MMP enzyme activity assay. The format is biochemical. The conditions noted are these: read-out: MMP Inhibitory Activity (IC50), MMP‐2. The method, then:
(§2) Protease stock solutions (10 mmol/L) were diluted with assay buffer to make final test solutions containing no more than 2.0% DMSO. The samples were dispensed into plates; substrate was added and read with PHERAstar PLUS (BMG Labtech, Ortenberg, Germany) plate reader.

The target in another data set is T2, MMP‐7 (Homo sapiens, UniProt P09237).
T2 construct: GenScript (contract testing)
T2 sequence (P09237 95-267): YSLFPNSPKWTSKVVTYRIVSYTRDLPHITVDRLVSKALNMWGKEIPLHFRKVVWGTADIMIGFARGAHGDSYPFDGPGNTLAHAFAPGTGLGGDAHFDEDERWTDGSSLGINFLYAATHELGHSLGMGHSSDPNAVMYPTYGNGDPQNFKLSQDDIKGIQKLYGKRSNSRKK
Put plainly: MMP enzyme activity assay. The format is biochemical. To be noted: read-out: MMP Inhibitory Activity (IC50), MMP‐7. The method, then: as §2

The target of a further data set is T3, MMP‐9 (Homo sapiens, UniProt P14780).
T3 construct: GenScript (contract testing)
Put plainly: MMP enzyme activity assay. Type of data set: biochemical. The conditions noted are these: read-out: MMP Inhibitory Activity (IC50), MMP‐9. How it is done:
as §2

For data set [3], the system named is apoptotic cells in perihematomal area. Nature of the data set: TUNEL analysis of apoptotic cells in perihematomal area. The format is in vivo, rat. The conditions noted are these: 14 days after ICH, n=3. The method, then:
After the completion of the neuroimaging study, 14 days after ICH, animals were euthanized by an overdose of anesthetic (sevoflurane 8%) and perfused with PBS and 4% formaldehyde. The brain was removed, axially sliced (2 mm thick), fixed in 4% formaldehyde (4 hours), transferred to 20% sucrose in PBS (4°C), included in optimal cutting temperature compound (Sakura Finetek, Torrance, CA), and stored at −80°C. Slices were cut into 8‐μm‐thick slices using a cryostat (Sakura Finetek Europe BV, Leiden, The Netherlands).
Brain slices were dried at 38°C for 3 hours, and the optimal cutting temperature compound was then removed by washing the slices twice in PBS. Antigen retrieval was performed by immersion of slices in a thermal bath of citrate buffer (pH 6.0) for 20 minutes at 99°C. To detect apoptotic cells, a terminal deoxynucleotidyl transferase dUTP nick end labeling assay was performed. […] Slices were mounted (Polysciences, Eppelheim, Germany) and photographed in a Leica DMI 6000 B microscope with Leica Application Suite Advance Fluorescence software, version 1.0.0 (LAS AF; Leica Microsystems, Wetzlar, Germany).
A quantitative analysis of terminal deoxynucleotidyl transferase dUTP nick end labeling was performed using 3 animals from each group. […] Positive nuclei were counted manually.

Data set [4] in a line: Activated partial thromboplastin time in plasma after ICH. Type of data set: in vivo, rat. To be noted: n=3. The method, then: Prothrombin time (PT) and activated partial thromboplastin time (aPTT) were measured with STA‐Neoplastin R and PTT reagents (STA‐Compact, Stago, Barcelona, Spain). PT results were expressed as percentage of the standard value, and aPTT results were expressed in seconds.

pEC50, pIC50: −log10 of the molar value.

T3 sequence (P14780 94-707, species assumed): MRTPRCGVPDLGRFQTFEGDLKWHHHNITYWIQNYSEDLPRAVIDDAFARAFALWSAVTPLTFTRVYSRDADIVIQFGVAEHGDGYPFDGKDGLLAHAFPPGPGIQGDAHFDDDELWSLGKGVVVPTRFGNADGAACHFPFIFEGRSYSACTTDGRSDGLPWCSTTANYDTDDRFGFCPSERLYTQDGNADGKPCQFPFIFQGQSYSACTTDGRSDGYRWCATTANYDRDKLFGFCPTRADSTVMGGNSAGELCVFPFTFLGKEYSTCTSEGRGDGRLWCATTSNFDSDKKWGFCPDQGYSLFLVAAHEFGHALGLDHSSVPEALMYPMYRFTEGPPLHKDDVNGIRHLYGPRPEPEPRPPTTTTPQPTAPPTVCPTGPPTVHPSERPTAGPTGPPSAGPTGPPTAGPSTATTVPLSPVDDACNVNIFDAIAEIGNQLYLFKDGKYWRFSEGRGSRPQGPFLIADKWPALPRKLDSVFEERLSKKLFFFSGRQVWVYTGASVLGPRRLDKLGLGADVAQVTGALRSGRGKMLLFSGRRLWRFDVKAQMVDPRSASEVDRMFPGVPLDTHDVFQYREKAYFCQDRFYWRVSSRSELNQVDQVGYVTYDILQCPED

Take `CNC(=O)c1ccc(Oc2ccc(S(=O)(=O)[C@]3(C(=O)NO)CCC4(CCNCC4)C3)cc2)cc1` [CM352, 4‐[4‐[[(3R)‐3‐(Hydroxycarbamoyl)‐8‐azaspiro[4.5]decan‐3‐yl]sulfonyl]phenoxy]‐N‐methylbenzamide]: the pEC50 is 5.43 in data set [1] (rat whole blood, tPA‐induced fibrinolysis, ROTEM, read-out: effective concentration to delay lysis time by 50%) and 6.70 in data set [2]. Besides, the “coagulation activation and clot firmness” value in data set [1] (thromboelastometry assay, whole blood) was “without changes in coagulation activation and clot firmness”. For the same compound, the pIC50 is 8.08 on MMP‐2, 4.80 on MMP‐7 and 8.00 at MMP‐9. Besides, the “apoptosis (TUNEL‐positive cells) in the perihematomal area versus control” value in data set [3] was “No effects on apoptosis”. Besides, the aPTT in data set [4] (3 H) was 21.7 ± 4.5 s; in data set [4] (5 H), 21.7 ± 4.0 s; in data set [4] (24 H), 21.7 ± 2.5 s; in data set [4] (Basal), 21.0 ± 4.0 s.

By pIC50 is commonly meant the IC50 on a negative log10 scale, so that one unit is a factor of ten.
